Test results reported in patent US20260000496A1, “MATERIALS AND METHODS FOR DRUG-INDUCED GINGIVAL OVERGROWTH” (Optimed Technology, Inc., priority 2019, published 2026).

Assays:
[1] = Folic acid release from PLG(A) microspheres in methylcellulose gel; type: physicochemical
Experimental: Folic acid was encapsulated in polylactic-colycolide (PLG) microspheres that were visualized using scanning electron microscopy (SEM) (A). These microspheres were embedded within a methylcellulose gel to enable oral applications and visualized using SEM (B). Controlled release of folic acid of a protracted time course was examined using spectroscopy and cumulative release was calculated (C).
In order to deliver the Folic acid treatment, a controlled release system with polylactic glycolic acid (PLGA) and methylcellulose gel were used (FIG. 36). Release kinetics of folic acid increased over time and noted to continue until day 21. The amount of the released Folic acid was approximate 400 μg/ml on day 1 and reached 800 μg/ml on day 21 due to bulk deterioration of polymer.
Microsphere Fabrication. The folic acid was encapsulated in poly (lactide-co-glycolide) (PLG) (8515DLG7E, Lakeshore Biomaterials, Birmingham, AL, USA) microspheres using double emulsion solvent evaporation method. Briefly, a 100 μL quantity of proteins dissolved in molecular-grade water was pipetted into 1 mL of 5% PLG in ethyl acetate (Sigma-Aldrich Corp., St. Louis, MO, USA) and sonicated (Sonics and Materials Inc., Newtown, CT, USA) on 50% magnitude for 1 min. A second emulsion composed of 1% […] (PVA) (Sigma-Aldrich) and 7% ethyl acetate was then added and vortexed for 15 sec. The solution was then added to a 1% PVA solution with continuous stirring for 3 hrs at room temperature and filtered through a 0.2-μm filter (Nalgene, ThermoFisher Scientific, Rockville, MD, USA), collected by centrifugation at 2,000 rpm for 10 min (Eppendorf, Hamburg, Germany), freeze-dried for 16 hrs (Labconco, Kansas City, MO, USA), and stored at −20° C. The microspheres fabricated with this technique were between 2 and 200 microns.
Gel preparation and folic acid release study. Folic acid (100 μg/ml) (Sigma-Aldrich, St Louis, MO) was encapsulated in PLG microspheres as described above. The resulting lyophilized powder was formulated into an oral gel containing 20 mg of folic acid microspheres mixed with 5% of methylcellulose (Sigma-Aldrich, St Louis, MO) in 330 μl of phosphate buffer saline. The gels were prepared fresh daily before applications and repeated until end of the study period (14 days).

Human TNF-α promoter = test: TNF-α promoter luciferase reporter assay in oral keratinocytes; type: cell-based; details: full length promoter and deletion constructs; CSA, LPS & Folic acid each 10 μg/ml; p<0.05
Experimental: Reporter assay. The TNF-α promoter deletion constructs, Δ−1220 (−1220 to +65) and Δ−450 (−450 to +65) were synthesized from SwitchGear Genomics (USA) for the luciferase reporter assay. The human TNF-α promoter constructs or an empty pLightSwitch promoter reporter vector as a control was transfected in to NOKSI using the FuGene reagent (SwitchGear Genomics, USA). Cells were seeded with a density of 5×10^3 per well of 96-well plate. GoClone reporter constructs and transfection reagents were mixed with optimum combination and incubated for 30 minutes. The media were changed to the seeded cells and reaction mixture were gently dripped onto the seeded cells, shaked the plate gently and incubated for next 24 hours. The LightSwitch assay reagents were added to the transfected plates and incubated for 30 minutes at room temperature. Luciferase activity were measured with a luminometer (Wallac Vector3; PerkinElmer, Boston, MA).
Oral Keratinocytes cells were transfected with Full length TNF-α promoter and […] and treated with CSA (10 μg/ml) & LPS (10 μg/ml), and CSA (10 μg/ml), LPS (10 μg/ml) & Folic acid (10 μg/ml). TNF-α luciferase reporter activity were measured. (p<0.05).

phospho-p65 = test: Mice study #2: phospho-p65 immunoblotting of gingival samples; type: in vivo, C57BL/6 mice; details: pattern as for Myd88 (disease higher than control and treatment)
Experimental: Western blot analysis. Cells were seeded in 60 mm plates with a density of 5×10^5 cells per plate and washed briefly with Dulbecco's phosphate-buffered saline (Gibco, Waltham, MA, USA). Whole cell lysates were prepared using RIPA lysis buffer containing protease inhibitor cocktail (Sigma-Aldrich). Total protein concentration was determined using the BCA reagent (Pierce, Waltham, MA, USA). 20 μg of total protein were resolved on sodium dodecyl sulfate-polyacrylamide gel electrophoresis and transferred to polyvinylidenedifluoride membrane and immunoblotted. The blots were incubated for 1 h in 1% bovine serum albumin (BSA) (Sigma-Aldrich) to block the non-specific bindings followed by over-night incubation in primary antibodies (MyD88 and pP65 from Cell Signaling Technology, and human LITAF ThermoFisher Sigma) at 4° C. on shaker. Next day, blots were washed for three times (10 min each) in Tris-buffered saline containing 1% Tween20 (TBST) followed by incubation with secondary antibody (Goat anti-rabbit IgG HRP) with 1:10,000 dilution for 1 h. […] The band intensities were quantified using software ImageJ (NIH, USA) and relative protein levels were normalized by β-actin (Cell Signaling). […] The band intensities were measured by the software ImageJ (NIH, USA), and relative protein levels were normalized by β-actin.

release of folic acid from polymeric microspheres ([1]; FIG. 20): sustained release
release of folic acid noted to continue until ([1]; controlled release system with PLGA and methylcellulose gel): 21 days
amount of the released Folic acid ([1]; controlled release system with PLGA and methylcellulose gel, day 1): ~400 µg/mL
amount of the released Folic acid ([1]; controlled release system with PLGA and methylcellulose gel, day 21): 800 µg/mL
TNF-α luciferase reporter activity (Human TNF-α promoter): inhibits promoter activity of TNF-α
SMILES: Nc1nc2ncc(CNc3ccc(C(=O)N[C@@H](CCC(=O)O)C(=O)O)cc3)nc2c(=O)[nH]1 [folic acid]
phospho p65 expression, pattern across groups (phospho-p65): a similar pattern
